Experiments:
[1] = system: Mice (DDY male 5-6 W); assay: Blood stream clearance of carbon; format: in vivo; settings: carbon clearance measured 24 hours later
Procedure: 1. Carbon suspension. Rotoring drawing ink (170 mg carbon/ml.) was diluted to 1/5 of the original concentration in saline containing 1% gelatin. 2. 0.1% aqueous sodium carbonate solution. Mice (DDY male 5-6 W) were injected via the tail vein with a dose of 0.01 ml/g body weight of carbon. Blood samples were taken by means of a pointed capillary […] calibrated to hold a 50 μl and previously washed in heparin. This was plunged into the retroorbital venous sinus at the nasal angle of the eye. The samples were removed at 3 and 6 min. The blood was immediately discharged into 3.0 ml. of the sodium carbonate solution. This hemolyzed the blood and allowed the quantitation of carbon. The samples were then read in a spectrophotometer at 660 nm, the log concentration being obtained from a previously determined standard curve. The clearance value K may be determined by plotting log carbon concentration against time according to the following relationship; [formula] in which T1 and T2 represent the time in min when the sample were withdrawn and C1 and C2 represent the concentrations of carbon in the blood at the time T1 and T2, respectively. The aqueous solution of the drug as given was administered subcutaneously to mice. Twenty four hours later, blood stream clearance of carbon was measured. K value obtained with treated mice was compared with that of control mice.

[2] = system: E. coli 22; assay: Protective efficacy in experimental infection in mice; format: in vivo; settings: male ICR mice, E. coli 22 i.p., survival after four days
Procedure: In determining the protective efficacy against experimental infections in mice, the test compound was dissolved in and diluted with sterile saline to provide prescribed concentrations of drug.
Male ICR-strain mice, aged 4 weeks were used in groups of ten mice. E. coli 22 was cultivated overnight at 37° C. on trypticase soy agar and then were suspended in a sterile saline to obtain microbial cell concentration of 9.0×10^7 CFU/ml. Mice were inoculated intraperitoneally with 0.2 ml of the suspension. Each of the test drugs was given intraperitoneally in various doses to a group of ten mice 24 hours before challenge.
Survival percent were found from the number of the surviving animals after four days of injection.

## D-Lac-L-Ala-γ-D-Glu(α-OH)-(L)-[D-Lac-L-Ala-γ-D-Glu(α-OH)-(L)-mesoDAP-(D)-Gly]-(D)-mesoDAP-(L)-GlyOH [Example 13 (Step 2)]
[1]; dose 1 mg/mouse subcutaneously
  K treated/K control: 0.6
[1]; dose 100 mg/mouse subcutaneously
  K treated/K control: 1.6
[2]; dose 1 mg/kg intraperitoneally 24 hours before challenge
  Survival (%): 100%
[2]; dose 10 mg/kg intraperitoneally 24 hours before challenge
  Survival (%): 100%
